# ChEMBL document CHEMBL1857833, “Screening and optimization of specific chemical series against human African Trypanosomiasis (HAT)”
# “And” between values parts separate entries of the source, which are not always exact repeats. Equal values may be shown once.
# Key:
# [1] = DNDI: Cytotoxicity against L929 mouse fibroblasts, CYTO-SP, 24 hour; format: toxicity, cell-based; conditions: mouse, L929 mouse fibroblasts
# Trypanosoma brucei [2] = assay: DNDI: Inhibition of Human African Trypanosomiasis, EATRO 110, in vitro; format: functional, organism-based
# Trypanosoma brucei [3] = assay: DNDI: Inhibition of Human African Trypanosomiasis, SBRI 427, in vitro; format: functional, organism-based
# [4] = DNDI: Lipophilicity measured in Chromatographic hydrophobicity index (CHI) assay, pH 7.4; format: physicochemical; conditions: buffer
# [5] = DNDI: half life in human liver microsomes at a concentration of 10uM; format: ADME, Microsome
# [6] = DNDI: in vitro intrinsic clearance in human liver microsomes at a concentration of 10uM; format: ADME, Microsome
# [7] = DNDI: in vitro intrinsic clearance in mouse liver microsomes at a concentration of 10uM; format: ADME, Microsome; conditions: read-out: CLint in vitro
# [8] = DNDI: half life in mouse liver microsomes at a concentration of 10uM; format: ADME, Microsome
# [9] = DNDI: Solubility in phosphate buffered saline at pH7.4 measured by optical density (turbidimetry) at room temperature (OD-RT); format: physicochemical; conditions: pH 7.4
# [10] = DNDI: Cytotoxicity against L929 mouse fibroblasts, 72 hour.; format: toxicity, cell-based; conditions: mouse, L929 mouse fibroblasts
# Trypanosoma brucei [11] = assay: (§1) DNDI: Mean survival time in days (MSD) of mice after intraperitoneal injection of Human African Trypanosomiasis (HAT), EATRO 110, in vivo at 20 mg/kg/day for 4 days.; format: functional, Mus musculus
# [12] = DNDI: Solubility in phosphate buffered saline at pH7.4 measured by nephelometry at room temperature (NEPH-RT); format: physicochemical; conditions: pH 7.4
# [13] = mouse, microsomes, 1 µM
# Description: DNDI: in vitro intrinsic clearance in mouse liver microsomes at a concentration of 1uM
# in vitro [14] = conditions: mouse, t (1 / 2)
# Description: DNDI: half life in mouse liver microsomes at a concentration of 1uM
# Trypanosoma cruzi = assay: DNDI: Inhibition of Chagas Disease parasite Trypanosoma cruzi (Tulahuen LacZ, Clone C4), in vitro.; format: functional, organism-based
# [15] = DNDI: Cytotoxicity against L-6 rat myoblasts from skeletal muscle cells; format: toxicity, cell-based, L6; conditions: L-6 rat skeletal muscle myoblasts
# [16] = system: Trypanosoma brucei rhodesiense; assay: DNDI: Inhibition of Human African Trypanosomiasis (HAT), STIB 900, in vitro; format: functional, organism-based
# Leishmania donovani = assay: DNDI: Inhibition of formation of Leishmania donovani (strain MHOM/ET/67/L82) axenic amastigotes, in vitro.; format: functional, organism-based
# Plasmodium falciparum = assay: DNDI: Inhibition of the malaria parasite Plasmodium falciparum, in vitro; format: functional, organism-based; conditions: K1
# Trypanosoma brucei [17] = assay: DNDI: Inhibition of Human African Trypanosomiasis, Cross 22, in vitro; format: functional, organism-based
# Trypanosoma brucei [18] = assay: as §1; format: functional, Mus musculus; remark: listed apart in the source
# in vitro [19] = conditions: human, t (1 / 2)
# Description: DNDI: half life in human liver microsomes at a concentration of 1uM
# in vitro [20] = conditions: human, CLint in vitro
# Description: DNDI: in vitro intrinsic clearance in human liver microsomes at a concentration of 1uM
# [21] = DNDI: % of compound remaining in rat S9 microsomes at a concentration of 1uM; format: ADME, subcellular, Liver, S9 fraction
# [22] = DNDI: half-life in mouse S9 microsomes at a concentration of 1uM; format: ADME, subcellular, Liver, S9 fraction
# [23] = Trypanosoma brucei, SBRI 427, read-out: IC50
Compound,IC50 at 24 h [1] [µg/mL],IC50 (Trypanosoma brucei [3]; [23]) [µg/mL],chromatographic logD [4],IC50 at 72 h [10] [µg/mL],solubility kinetic [12] [µM],CLint in vitro [13] [µL/min/mg],half-life at 1 µM (in vitro [14]; liver microsomes) [min],other results
O/N=C(\NC1CCCCC1)c1cccnc1Oc1ccccc1Br,> 50,1.13,,,,,,IC50 (Trypanosoma brucei [2]): 1.56 µg/mL
CCc1ccccc1Oc1ncccc1/C(=N\O)NC1CCCCC1,> 50,0.79,4.31,,,,,IC50 (Trypanosoma brucei [2]): 2.15 µg/mL; half-life at 10 µM [5]: 106 min; CLint in vitro [6]: 27 µL/min/mg; microsomal CLint at 10 µM [7]: 140 µL/min/mg; half-life at 10 µM [8]: 21 min; solubility kinetic [9]: 6.3 µM
CCCCCOc1ccc(-c2nc(CN[C@@H]3C[C@@H]4C[C@H]([C@H]3C)C4(C)C)co2)cc1,38.9,0.12,6.5,< 3.13,2,60,14,MSD (Trypanosoma brucei [11]): 4.5 days
O/N=C(/NC1CCCCC1)c1cccnc1Oc1ccccc1F,> 50,0.58,3.99,> 10,,,,IC50 (Trypanosoma cruzi): > 30 µg/mL; IC50 [15]: 54.3 µg/mL; IC50 (Trypanosoma brucei [2]): 1.5 µg/mL; IC50 [16]: 20.8 µg/mL; IC50 (Leishmania donovani): 19.9 µg/mL; IC50 (Plasmodium falciparum): > 5 µg/mL; half-life at 10 µM [5]: 185 min; CLint in vitro [6]: 16 µL/min/mg; microsomal CLint at 10 µM [7]: 275 µL/min/mg; half-life at 10 µM [8]: 10 min; solubility kinetic [9]: 50 µM
CSc1ccccc1Oc1ncccc1/C(=N\O)NC1CCCCC1,> 50,0.62,,,,,,IC50 (Trypanosoma brucei [2]): 1.34 µg/mL
CCCCc1ccc(-c2nc(CNC[C@@H]3CC[C@H]4C[C@@H]3C4(C)C)co2)cc1,> 50,,6.68,> 10,3,,,IC50 (Trypanosoma cruzi): 2.61 µg/mL; IC50 [15]: 2.89 µg/mL; IC50 (Trypanosoma brucei [17]): 0.31 µg/mL; IC50 [16]: 0.361 µg/mL; MSD (Trypanosoma brucei [18]): 3.5 days; IC50 (Leishmania donovani): 4.84 µg/mL; IC50 (Plasmodium falciparum): 0.389 µg/mL; half-life at 1 µM (in vitro [19]; liver microsomes): 39 min; microsomal CLint at 1 µM (in vitro [20]; liver microsomes): 22 µL/min/mg
O/N=C(\NC1CCCCC1)c1cc(F)cc(F)c1,> 50,> 5,4.26,,> 200,35,25,half-life at 1 µM (in vitro [19]; liver microsomes): 61 min; microsomal CLint at 1 µM (in vitro [20]; liver microsomes): 14 µL/min/mg
CCCCc1ccc(-c2nc(CN[C@@H]3C[C@@H]4C[C@H]([C@H]3C)C4(C)C)co2)cc1,> 50,,6.6,0.79,6,,,IC50 (Trypanosoma cruzi): 1.4 µg/mL; IC50 [15]: 3.21 µg/mL; IC50 (Trypanosoma brucei [17]): 0.57 µg/mL; IC50 [16]: 0.357 µg/mL; MSD (Trypanosoma brucei [18]): 3.5 days; IC50 (Leishmania donovani): 4.61 µg/mL; IC50 (Plasmodium falciparum): 0.497 µg/mL; half-life at 1 µM (in vitro [19]; microsomes): 81 min; microsomal CLint at 1 µM (in vitro [20]; microsomes): 10 µL/min/mg; half-life at 1 µM (in vitro [14]; microsomes): 13 min
Cc1ccc(Oc2ncccc2/C(=N/O)NC2CCCCC2)cc1,,0.16,4.32,> 10,25,244.61,3.48,remaining at 1 µM [21]: 0%
COC/C(=N/O)c1ccc(OC)cc1,> 50,> 5,1.64,,50,19,44,half-life at 1 µM (in vitro [19]; liver microsomes): 315 min; microsomal CLint at 1 µM (in vitro [20]; liver microsomes): 3 µL/min/mg
c1ccc2c(Oc3nc(NCCN4CCCC4)nc4ccsc34)cccc2c1,,1.06,,> 10,,,,half-life at 1 µM [22]: 3.5 min
O/N=C(\CNC1CCCCC1)c1ccccc1,> 50,> 5,2.78,,25,55,15,half-life at 1 µM (in vitro [19]; liver microsomes): 166 min; microsomal CLint at 1 µM (in vitro [20]; liver microsomes): 5 µL/min/mg
CCCCCOc1ccc(-c2nc(CNC[C@@H]3CC[C@H]4C[C@@H]3C4(C)C)co2)cc1,> 50,0.08,6.45,< 3.13,< 1,74,12,MSD (Trypanosoma brucei [11]): 4 days
O/N=C(\NC1CCCCC1)c1c(F)cccc1F,> 50,> 5,3.67,,50,8,,half-life at 1 µM (in vitro [19]; microsomes): > 350 min; microsomal CLint at 1 µM (in vitro [20]; microsomes): < 5 µL/min/mg; half-life at 1 µM (in vitro [14]; microsomes): 104 min
CCOc1ccc(-c2nc(CNC3[C@H]4C[C@@H]5C[C@@H](C[C@H]3C5)C4)co2)cc1 (stereo not given in full),43.2,1.21,,6.6,,102,8,IC50 (Trypanosoma brucei [17]): 2.15 µg/mL; IC50 (Trypanosoma brucei [2]): 0.86 µg/mL; IC50 (Trypanosoma brucei [3]): 1.46 µg/mL and 2 µg/mL
CCCCc1ccc(-c2nc(CNC3[C@H]4C[C@@H]5C[C@@H](C[C@H]3C5)C4)co2)cc1 (stereo not given in full),> 50,,,,,,,IC50 (Trypanosoma cruzi): 3.9 µg/mL; IC50 [15]: 8.8 µg/mL; IC50 (Trypanosoma brucei [17]): 0.44 µg/mL; IC50 (Trypanosoma brucei [3]): 0.77 ug/ml [middle of 4 runs]; IC50 [16]: 0.727 µg/mL; MSD (Trypanosoma brucei [11]): 4 days; IC50 (Leishmania donovani): 9.58 µg/mL; IC50 (Plasmodium falciparum): 0.738 µg/mL
O/N=C(\NC1CCCCC1)c1ccc(F)cc1,> 50,4.92,4.02,,> 200,53,16,half-life at 1 µM (in vitro [19]; liver microsomes): 72 min; microsomal CLint at 1 µM (in vitro [20]; liver microsomes): 12 µL/min/mg
